# Data as given in patent US20100267561A1, “HERBICIDAL PYRIDAZINONE DERIVATIVES” (priority 2007, published 2010).
# Tests used:
# Type in all cases: in vivo
# [1] = test system: Italian ryegrass (Lolium multiflorum); test: Test B pre-/postemergence plant response; conditions: for Ryegrass, Italian plant response rating: 8 g ai/ha
# In short: (§1)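 Visual scoring from 0 (no effect) to 100 (complete control) against untreated controls was done 13 to 15 days after greenhouse treatment. Chemicals were formulated in a surfactant-containing non-phytotoxic solvent and applied to soil preemergence or to 1- to 4-leaf (2-18 cm) plants postemergence.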
# [2] = test system: Russian thistle (Salsola iberica); test: Test B pre-/postemergence plant response; conditions: Preemergence
# In short: as §1
# [3] = test system: bermudagrass (Cynodon dactylon); test: Test B pre-/postemergence plant response; conditions: for Bermudagrass plant response rating: 8 g ai/ha
# In short: as §1
# [4] = test system: cocklebur (Xanthium strumarium); test: Test B pre-/postemergence plant response; conditions: for Cocklebur plant response rating: 8 g ai/ha
# In short: as §1
# [5] = test system: eastern black (E.B.) nightshade (Solanum ptycanthum); test: Test B pre-/postemergence plant response; conditions: Preemergence
# In short: as §1
# [6] = test system: goosegrass (Eleusine indica); test: Test B pre-/postemergence plant response; conditions: for Goosegrass plant response rating: 8 g ai/ha
# In short: as §1
# [7] = test system: green foxtail (Setaria viridis); test: Test B pre-/postemergence plant response; conditions: for Foxtail, Green plant response rating: 8 g ai/ha
# In short: as §1
# [8] = test system: johnsongrass (Sorghum halepense); test: Test B pre-/postemergence plant response; conditions: for Johnsongrass plant response rating: 8 g ai/ha
# In short: as §1
# [9] = test system: large crabgrass (Digitaria sanguinalis); test: Test B pre-/postemergence plant response; conditions: for Crabgrass, Large plant response rating: 8 g ai/ha
# In short: as §1
# [10] = test system: morningglory (Ipomoea coccinea); test: Test B pre-/postemergence plant response; conditions: for Morningglory plant response rating: 8 g ai/ha
# In short: as §1
# soybean (Glycine max) = test: Test B pre-/postemergence plant response; conditions: for Soybean plant response rating: 8 g ai/ha
# In short: as §1
# [11] = test system: surinam grass (Brachiaria decumbens); test: Test B pre-/postemergence plant response; conditions: for Surinam Grass plant response rating: 8 g ai/ha
# In short: as §1
# [12] = test system: wheat (Triticum aestivum); test: Test B pre-/postemergence plant response; conditions: for Wheat plant response rating: 8 g ai/ha
# In short: as §1
# [13] = test system: chickweed (Stellaria media); test: Test B postemergence plant response; conditions: for Plant response rating, Chickweed: Postemergence
# In short: (§2)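 Emerged plants, 1- to 4-leaf stage, treated; greenhouse 13–15 d; eye-scored vs untreated controls (0–100 scale).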
# [14] = test system: windgrass (Apera spica-venti); test: Test B postemergence plant response; conditions: for Plant response rating, Windgrass: Postemergence
# In short: as §2
# [15] = test system: winter barley (Hordeum vulgare); test: Test B postemergence plant response; conditions: for Plant response rating, Barley: Postemergence, scale 0 to 100, 0 no effect, 100 complete control
# In short: as §2
# [16] = Postemergence, 16 g ai/ha, scale 0 to 100
# [17] = Postemergence, 31 g ai/ha, scale 0 to 100, 0 no effect, 100 complete control
# [18] = Postemergence, 62 g ai/ha, scale 0 to 100, 0 no effect, 100 complete control
# [19] = Preemergence, 16 g ai/ha, scale 0 to 100 (0 no effect, 100 complete control)
# [20] = Preemergence, 31 g ai/ha, 0 to 100 scale, 0 no effect, 100 complete control
# [21] = Preemergence, 62 g ai/ha, scale 0 to 100
# [22] = 16 g ai/ha, scale 0 to 100 (0 no effect, 100 complete control)
# [23] = 31 g ai/ha, 0 to 100 scale, 0 no effect, 100 complete control
# [24] = 8 g ai/ha, postemergence, 0-100 scale
# [25] = 62 g ai/ha, scale 0 to 100, 0 no effect, 100 complete control
smiles,measurement,setting,value
Cc1cc(-c2ccc(Cl)cc2)nn1-c1c(OC(=O)c2cccc(Cl)c2)cnn(C)c1=O [Compound 32],"Ryegrass, Italian plant response rating","[1]; postemergence, 0-100 scale",5
same,"Plant response rating, Ryegrass, Italian",[1]; [16],85
same,"Plant response rating, Ryegrass, Italian",[1]; [17],95
same,"Plant response rating, Ryegrass, Italian",[1]; [18],95
same,"Plant response rating, Ryegrass, Italian",[1]; [19],100
same,"Plant response rating, Ryegrass, Italian",[1]; [20],100
same,"Plant response rating, Ryegrass, Italian",[1]; [21],100
same,"Ryegrass, Italian plant response rating","[1]; Preemergence, scale 0 to 100",90
same,"Plant response rating, Russian Thistle",[2]; [22],0
same,"Plant response rating, Russian Thistle",[2]; [23],0
same,"Plant response rating, Russian Thistle","[2]; 62 g ai/ha, scale 0 to 100",0
same,Russian Thistle plant response rating,"[2]; 8 g ai/ha, scale 0 to 100",0
same,Bermudagrass plant response rating,"[3]; postemergence, 0-100 scale",60
same,"Plant response rating, Bermudagrass",[3]; [16],65
same,"Plant response rating, Bermudagrass",[3]; [17],100
same,"Plant response rating, Bermudagrass",[3]; [18],100
same,Bermudagrass plant response rating,"[3]; Preemergence, scale 0 to 100 (0 no effect, 100 complete control)",0
same,"Plant response rating, Bermudagrass",[3]; [19],0
same,"Plant response rating, Bermudagrass",[3]; [20],0
same,"Plant response rating, Bermudagrass",[3]; [21],0
same,Cocklebur plant response rating,"[4]; postemergence, 0-100 scale",0
same,"Plant response rating, Cocklebur",[4]; [16],0
same,"Plant response rating, Cocklebur",[4]; [17],0
same,"Plant response rating, Cocklebur",[4]; [18],0
same,"Plant response rating, Cocklebur",[4]; [19],0
same,"Plant response rating, Cocklebur",[4]; [20],0
same,"Plant response rating, Cocklebur",[4]; [21],0
same,Cocklebur plant response rating,"[4]; Preemergence, scale 0 to 100",0
same,"Plant response rating, Nightshade, E. B.",[5]; [22],0
same,"Plant response rating, Nightshade, E. B.",[5]; [23],0
same,"Plant response rating, Nightshade, E. B.","[5]; 62 g ai/ha, scale 0 to 100",0
same,"Nightshade, E. B. plant response rating","[5]; 8 g ai/ha, scale 0 to 100",0
same,Goosegrass plant response rating,"[6]; postemergence, 0-100 scale",0
same,"Plant response rating, Goosegrass",[6]; [16],65
same,"Plant response rating, Goosegrass",[6]; [17],70
same,"Plant response rating, Goosegrass",[6]; [18],70
same,"Plant response rating, Goosegrass",[6]; [19],98
same,"Plant response rating, Goosegrass",[6]; [20],98
same,"Plant response rating, Goosegrass",[6]; [21],100
same,Goosegrass plant response rating,"[6]; Preemergence, scale 0 to 100",60
same,"Foxtail, Green plant response rating","[7]; postemergence, 0-100 scale",60
same,"Plant response rating, Foxtail, Green",[7]; [16],60
same,"Plant response rating, Foxtail, Green",[7]; [17],90
same,"Plant response rating, Foxtail, Green",[7]; [18],95
same,"Plant response rating, Foxtail, Green",[7]; [19],100
same,"Plant response rating, Foxtail, Green",[7]; [20],100
same,"Plant response rating, Foxtail, Green",[7]; [21],100
same,"Foxtail, Green plant response rating","[7]; Preemergence, scale 0 to 100",70
same,Johnsongrass plant response rating,"[8]; postemergence, 0-100 scale",50
same,"Plant response rating, Johnsongrass",[8]; [16],70
same,"Plant response rating, Johnsongrass",[8]; [17],98
same,"Plant response rating, Johnsongrass",[8]; [18],98
same,"Plant response rating, Johnsongrass",[8]; [19],75
same,"Plant response rating, Johnsongrass",[8]; [20],85
same,"Plant response rating, Johnsongrass",[8]; [21],90
same,Johnsongrass plant response rating,"[8]; Preemergence, scale 0 to 100",65
same,"Crabgrass, Large plant response rating","[9]; postemergence, 0-100 scale",60
same,"Plant response rating, Crabgrass, Large",[9]; [16],85
same,"Plant response rating, Crabgrass, Large",[9]; [17],95
same,"Plant response rating, Crabgrass, Large",[9]; [18],98
same,"Plant response rating, Crabgrass, Large",[9]; [19],85
same,"Plant response rating, Crabgrass, Large",[9]; [20],100
same,"Plant response rating, Crabgrass, Large",[9]; [21],100
same,"Crabgrass, Large plant response rating","[9]; Preemergence, scale 0 to 100",20
same,Morningglory plant response rating,"[10]; postemergence, 0-100 scale",0
same,"Plant response rating, Morningglory",[10]; [16],0
same,"Plant response rating, Morningglory",[10]; [17],0
same,"Plant response rating, Morningglory",[10]; [18],0
same,"Plant response rating, Morningglory",[10]; [19],0
same,"Plant response rating, Morningglory",[10]; [20],0
same,"Plant response rating, Morningglory",[10]; [21],0
same,Morningglory plant response rating,"[10]; Preemergence, scale 0 to 100",0
same,Soybean plant response rating,"soybean (Glycine max); postemergence, 0-100 scale",0
same,"Plant response rating, Soybean",soybean (Glycine max); [16],0
same,"Plant response rating, Soybean",soybean (Glycine max); [18],0
same,"Plant response rating, Soybean",soybean (Glycine max); [19],0
same,"Plant response rating, Soybean",soybean (Glycine max); [20],0
same,"Plant response rating, Soybean",soybean (Glycine max); [21],0
same,Soybean plant response rating,"soybean (Glycine max); Preemergence, scale 0 to 100",0
same,Surinam Grass plant response rating,"[11]; postemergence, 0-100 scale",65
same,"Plant response rating, Surinam Grass",[11]; [16],70
same,"Plant response rating, Surinam Grass",[11]; [18],98
same,"Plant response rating, Surinam Grass",[11]; [19],75
same,"Plant response rating, Surinam Grass",[11]; [20],100
same,"Plant response rating, Surinam Grass",[11]; [21],100
same,Surinam Grass plant response rating,"[11]; Preemergence, scale 0 to 100",70
same,Wheat plant response rating,"[12]; postemergence, 0-100 scale",0
same,"Plant response rating, Wheat",[12]; [16],30
same,"Plant response rating, Wheat",[12]; [19],0
same,"Plant response rating, Wheat",[12]; [20],20
same,"Plant response rating, Wheat",[12]; [21],70
same,Wheat plant response rating,"[12]; Preemergence, scale 0 to 100",0
same,Chickweed plant response rating,[13]; [24],0
same,"Plant response rating, Chickweed","[13]; 16 g ai/ha, scale 0 to 100",0
same,"Plant response rating, Chickweed","[13]; 31 g ai/ha, scale 0 to 100, 0 no effect, 100 complete control",0
same,"Plant response rating, Chickweed",[13]; [25],20
same,Windgrass plant response rating,[14]; [24],0
same,"Plant response rating, Windgrass","[14]; 16 g ai/ha, scale 0 to 100",0
same,"Plant response rating, Windgrass",[14]; [25],50
same,Barley plant response rating,[15]; [24],0
same,"Plant response rating, Barley",[15]; 16 g ai/ha,0
same,"Plant response rating, Barley",[15]; 31 g ai/ha,0
same,"Plant response rating, Barley",[15]; 62 g ai/ha,0
